# Experimental data: patent US9012489B2, “Phenyl-3-aza-bicyclo[3.1.0]hex-3-yl-methanones and the use thereof as medicament” (Boehringer Ingelheim International GmbH, priority 2011, dated 2015)
# pIC50: −log10 of the molar value.
# Biological target: T1, GlyT1 transporter (Homo sapiens, UniProt P48067)
# T1 construct: endogenously expressing the GlyT1 transporter; host or cells: SK-N-MC human neuroblastoma cells
# T1 sequence (P48067 1-706): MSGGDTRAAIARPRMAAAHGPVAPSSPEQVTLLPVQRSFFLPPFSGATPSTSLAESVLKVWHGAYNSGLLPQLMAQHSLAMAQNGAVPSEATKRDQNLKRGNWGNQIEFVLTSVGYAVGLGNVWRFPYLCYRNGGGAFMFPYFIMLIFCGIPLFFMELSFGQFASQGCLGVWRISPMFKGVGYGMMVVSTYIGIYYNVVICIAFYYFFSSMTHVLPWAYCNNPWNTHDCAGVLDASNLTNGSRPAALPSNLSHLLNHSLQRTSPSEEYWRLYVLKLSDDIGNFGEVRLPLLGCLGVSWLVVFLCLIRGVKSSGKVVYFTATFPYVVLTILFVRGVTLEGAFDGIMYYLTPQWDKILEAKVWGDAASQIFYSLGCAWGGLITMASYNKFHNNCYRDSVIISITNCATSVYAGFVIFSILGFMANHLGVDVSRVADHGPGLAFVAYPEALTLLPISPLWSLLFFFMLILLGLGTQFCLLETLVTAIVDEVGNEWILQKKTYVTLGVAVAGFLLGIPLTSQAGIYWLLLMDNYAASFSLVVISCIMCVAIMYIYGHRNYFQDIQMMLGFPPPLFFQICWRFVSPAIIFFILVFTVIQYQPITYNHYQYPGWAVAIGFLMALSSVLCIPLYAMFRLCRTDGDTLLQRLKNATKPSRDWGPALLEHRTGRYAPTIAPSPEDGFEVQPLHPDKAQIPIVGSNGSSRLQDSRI
# Experiment: GlyT1 assay: 3H-glycine uptake into SK-N-MC cells (Cytostar-T format)
# Format: cell-based
# Settings: glycine uptake in human SK-N-MC cells endogenously expressing GlyT1; 500 nM glycine, 1% DMSO, signal recorded over 60 min
# From the text: Cells expressing either endogenously the GlyT1 transporter like JAR cells (human placental choriocarcinoma cells; e.g. WO 2008/002583) or SK-N-MC cells (human neuroblastoma cells; Depoortere et al., 2005. Neuropsychopharmacology 30:1963-1985) or primary neurons or cells which have been transfected with a plasmid encoding the cDNA of a functional GlyT1 transporter and stably or transiently express GlyT1 (e.g. WO 2006/08200) can be used to monitor glycine uptake in cells. Different protocols for determination of the glycine uptake into the cells described above can be applied in order to identify and rank compounds which interfere with glycine uptake in the selected cell.
# Compounds outlined in the examples below were characterized using human SK-N-MC cells (ATCC number HTB-10) endogenously expressing the GlyT1 transporter which is responsible for the uptake of glycine into these cells and the uptake of glycine into these cells is monitored using the Cytostar-T assay format (GE Healthcare, RPNQ0162) which is based on the radioactive glycine taken up by the cells and brought into proximity with the scintillant contained within the base of the plate. The radioactive decay is converted to a light signal based on the integration of the scintillation matrix into the assay plate. The uptake is recorded as kinetic and the slope of the measured counts over time is used to calculate IC50.
# In detail, SK-N-MC cells are seeded into 96-well Cytostar-T assay plates at a density of 200,000 cells/well and grown for 16-18 hours to confluence in growth medium as recommended by ATCC. Before starting the assay, cells are washed once with HBSS (Hank's buffered salt solution; Sigma, H8264) cont. 5 mM alanine (referred in here as HBSS/Ala) and afterwards the following reagents are added: • 1. 80 μl/well HBSS/Ala • 2. 20 μl/well of HBSS/Ala containing 6× the concentration of compound in 6% DMSO • 3. approx. 5-10 min incubation • 4. 20 μl/well 3 μM glycine (^3H-glycine (Perkin Elmer, NET004001MC, specific activity: 52 Ci/mmol; diluted 1:1 with unlabelled glycine) in HBSS/Ala.
# In the final assay, glycine concentration is 500 nM (250 nM derived from the ^3H-glycine Perkin Elmer, 250 nM unlabelled glycine), DMSO concentration is 1%.
# The assay plate is immediately after addition of the ^3H-glycine placed into a Micro-Beta Counter (Perkin Elmer) and the signal is recorded over 60 min.
# To calculate uptake, the slope in the linear range of the kinetics is determined using GraphPadPrism and for the different slopes at the selected concentrations IC50 are calculated by curve fitting using the software GraphPadPrism.
# Maximal glycine uptake in every experiment is determined by incubation of SK-N-MC cells with substrate but without inhibitor. Unspecific uptake of glycine by the cells is determined by incubating the cells with substrate and a reference GlyT1 inhibitor e.g. 10 μM RG-1678 (Pinard et al., 2010, J. Med. Chem. 53(12):4603-14).
# Compounds are diluted from 10 mM stocks and in general, for IC50 determination 8 compound concentrations are used.
row,SMILES,pIC50
1,"C[C@H](Oc1ccc(S(C)(=O)=O)cc1C(=O)N1CC2CC2(c2noc(C3CC3(F)F)n2)C1)C(F)(F)F (mixture of isomers) [Example 63, {1-[5-(2,2-Difluoro-cyclopropyl)-[1,2,4]oxadiazol-3-yl]-3-aza-bicyclo[3.1.0]hex-3-yl}-[5-methanesulfonyl-2-(2,2,2-trifluoro-1-methyl-ethoxy)-phenyl]-methanone]",8.00
2,"C[C@H](Oc1ccc(S(C)(=O)=O)cc1C(=O)N1CC2CC2(c2nc(C(F)(F)F)no2)C1)C(F)(F)F (mixture of isomers) [Example 36, [5-Methanesulfonyl-2-(2,2,2-trifluoro-1-methyl-ethoxy)-phenyl]-[1-(3-trifluoromethyl-[1,2,4]oxadiazol-5-yl)-3-aza-bicyclo[3.1.0]hex-3-yl]-methanone]",7.21
3,"CC(C)Oc1ccc(S(C)(=O)=O)cc1C(=O)N1CC2CC2(c2noc(C3(C(F)(F)F)CC3)n2)C1 (single isomer, unassigned) [Example 142, (2-Isopropoxy-5-methanesulfonyl-phenyl)-{1-[5-(1-trifluoromethyl-cyclopropyl)-[1,2,4]oxadiazol-3-yl]-3-aza-bicyclo[3.1.0]hex-3-yl}-methanone]",8.52
4,"C[C@H](Oc1ccc(S(C)(=O)=O)cc1C(=O)N1CC2CC2(c2noc(C3CC3)n2)C1)C(F)(F)F (single isomer, unassigned) [Example 11, [1-(5-Cyclopropyl-[1,2,4]oxadiazol-3-yl)-3-aza-bicyclo[3.1.0]hex-3-yl]-[5-methanesulfonyl-2-(2,2,2-trifluoro-1-methyl-ethoxy)-phenyl]-methanone]",6.76
5,"C[C@H](Oc1ccc(S(C)(=O)=O)cc1C(=O)N1CC2CC2(c2coc(C3CC3)n2)C1)C(F)(F)F (mixture of isomers) [Example 80, [1-(2-Cyclopropyl-oxazol-4-yl)-3-aza-bicyclo[3.1.0]hex-3-yl]-[5-methanesulfonyl-2-((S)-2,2,2-trifluoro-1-methyl-ethoxy)-phenyl]-methanone]",8.52
6,"CC(C)Oc1ccc(S(C)(=O)=O)cc1C(=O)N1CC2CC2(c2noc(C(F)(F)F)n2)C1 (racemic) [Example 96, (2-Isopropoxy-5-methanesulfonyl-phenyl)-[1-(5-trifluoromethyl-[1,2,4]oxadiazol-3-yl)-3-aza-bicyclo[3.1.0]hex-3-yl]-methanone]",7.57
7,"C[C@H](Oc1ccc(S(C)(=O)=O)cc1C(=O)N1CC2CC2(c2noc(C3(C(F)(F)F)CC3)n2)C1)C(F)(F)F (single isomer, unassigned) [Example 67, [5-Methanesulfonyl-2-(2,2,2-trifluoro-1-methyl-ethoxy)-phenyl]-{1-[5-(1-trifluoromethyl-cyclopropyl)-[1,2,4]oxadiazol-3-yl]-3-aza-bicyclo[3.1.0]hex-3-yl}-methanone]",7.00
8,"C[C@H](Oc1ccc(S(C)(=O)=O)cc1C(=O)N1CC2CC2(c2noc(C(F)(F)F)n2)C1)C(F)(F)F (single isomer, unassigned) [Example 2, [5-Methanesulfonyl-2-(2,2,2-trifluoro-1-methyl-ethoxy)-phenyl]-[1-(5-trifluoromethyl-[1,2,4]oxadiazol-3-yl)-3-aza-bicyclo[3.1.0]hex-3-yl]-methanone]",7.74
9,"C[C@@H](Oc1ccc(S(C)(=O)=O)cc1C(=O)N1CC2CC2(c2nc(C3(C(F)(F)F)CC3)no2)C1)C(F)(F)F (mixture of isomers) [Example 156, [5-Methanesulfonyl-2-(2,2,2-trifluoro-1-methyl-ethoxy)-phenyl]-{1-[3-(1-trifluoromethyl-cyclopropyl)-[1,2,4]oxadiazol-5-yl]-3-aza-bicyclo[3.1.0]hex-3-yl}-methanone]",7.96
10,"CCS(=O)(=O)c1ccc(O[C@@H](C)C(F)(F)F)c(C(=O)N2CC3CC3(c3cc(C(F)(F)F)on3)C2)c1 (single isomer, unassigned) [Example 103, [5-Ethanesulfonyl-2-(2,2,2-trifluoro-1-methyl-ethoxy)-phenyl]-[1-(5-trifluoromethyl-isoxazol-3-yl)-3-aza-bicyclo[3.1.0]hex-3-yl]-methanone]",8.15
11,"C[C@H](Oc1ccc(S(C)(=O)=O)cc1C(=O)N1CC2CC2(c2nc(C3CC3)no2)C1)C(F)(F)F (single isomer, unassigned) [Example 143, [1-(3-Cyclopropyl-[1,2,4]oxadiazol-5-yl)-3-aza-bicyclo[3.1.0]hex-3-yl]-[5-methanesulfonyl-2-(2,2,2-trifluoro-1-methyl-ethoxy)-phenyl]-methanone]",8.15
12,"C[C@H](Oc1ccc(S(C)(=O)=O)cc1C(=O)N1CC2CC2(c2nnc(C(F)(F)F)o2)C1)C(F)(F)F (single isomer, unassigned) [Example 126, [5-Methanesulfonyl-2-(2,2,2-trifluoro-1-methyl-ethoxy)-phenyl]-[1-(5-trifluoromethyl-[1,3,4]oxadiazol-2-yl)-3-aza-bicyclo[3.1.0]hex-3-yl]-methanone]",7.80
13,"Cc1coc(C23CC2CN(C(=O)c2cc(S(C)(=O)=O)ccc2O[C@@H](C)C(F)(F)F)C3)n1 (mixture of isomers) [Example 33, [5-Methanesulfonyl-2-(2,2,2-trifluoro-1-methyl-ethoxy)-phenyl]-[1-(4-methyl-oxazol-2-yl)-3-aza-bicyclo[3.1.0]hex-3-yl]-methanone]",6.72
14,"C[C@H](Oc1ccc(S(C)(=O)=O)cc1C(=O)N1CC2CC2(c2nc(C(F)(F)F)co2)C1)C(F)(F)F (single isomer, unassigned) [Example 136, [5-Methanesulfonyl-2-(2,2,2-trifluoro-1-methyl-ethoxy)-phenyl]-[1-(4-trifluoromethyl-oxazol-2-yl)-3-aza-bicyclo[3.1.0]hex-3-yl]-methanone]",6.92
15,"C[C@@H](Oc1ccc(S(C)(=O)=O)cc1C(=O)N1CC2CC2(c2nccc(C(F)(F)F)n2)C1)C(F)(F)F (single isomer, unassigned) [Example 18, [5-Methanesulfonyl-2-(2,2,2-trifluoro-1-methyl-ethoxy)-phenyl]-[1-(4-trifluoromethyl-pyrimidin-2-yl)-3-aza-bicyclo[3.1.0]hex-3-yl]-methanone]",6.97
16,"C[C@@H](Oc1ccc(S(C)(=O)=O)cc1C(=O)N1CC2CC2(c2cc(C(F)(F)F)on2)C1)C(F)(F)F (single isomer, unassigned) [Example 50, [5-Methanesulfonyl-2-(2,2,2-trifluoro-1-methyl-ethoxy)-phenyl]-[1-(5-trifluoromethyl-isoxazol-3-yl)-3-aza-bicyclo[3.1.0]hex-3-yl]-methanone]",8.22
17,"Cc1nc(C23CC2CN(C(=O)c2cc(S(C)(=O)=O)ccc2O[C@H](C)C(F)(F)F)C3)no1 (mixture of isomers) [Example 101, [5-Methanesulfonyl-2-(2,2,2-trifluoro-1-methyl-ethoxy)-phenyl]-[1-(5-methyl-[1,2,4]oxadiazol-3-yl)-3-aza-bicyclo[3.1.0]hex-3-yl]-methanone]",7.82
